Assay [1] deals with mixed-parallel quadruplex structure. The settings on record: cited from earlier work.
For another assay, the target named is T1, nucleolin/8749NT (Homo sapiens, UniProt P19338).
T1 construct: without the N-terminal acidic stretches domain
Put plainly: EMSA, interference with nucleolin/nucleic acid ligand interaction. Further details: key to Activity of Compound A-1 (relative interference), ligand 8749NT: +: least interference by compound A-1; ++++: greatest interference by compound A-1. Type of assay: binding. The protocol:
(§1) The following assays assessed effects of compounds on interactions between nucleolin and nucleic acid ligands capable of forming quadruplex (QP) and hairpin (HP) secondary structures. Nucleic acid ligands tested were a cMyc QP DNA having nucleotide sequence 5′-[…]-3′ (SEQ ID NO: 176) and a HP pre-rRNA region to which nucleolin binds, having the sequence 5′-[…]-3′ (SEQ ID NO: 177). In the assays, recombinant nucleolin (˜250 nM), which was fused to maltose binding protein and had the sequence under accession number NM_005381 without the N-terminal acidic stretches domain, was incubated with each of the two ^32P-labeled nucleic acid ligands (10 or 250 nM). Nucleolin and the nucleic acid ligand were incubated in the presence or absence of a test compound of Formula A-1, B-1, C-6 or C-7 in an incubation buffer (12.5 mM Tris, pH 7.6, 60 mM KCl, 1 mM MgCl2, 0.1 mM EDTA, 1 mM DTT, 5% glycerol, 0.1 mg/ml BSA) for 30 minutes at room temperature. Structures for A-1 and B-1 are shown above and structures for C-6 and C-7 are shown hereafter: [drawing 17] […]
(§2) The assay also was conducted in a filter-binding format. […] Radioactivity was assayed with MicroBeta scintillation counter (Perkin Elmer). Binding curves were constructed and apparent Kd's and Bmax's for the complexes were calculated using the GraphPad Prizm software program (GraphPad Software). […]
A general note: A gel shift assay detects complexes by their altered migration in electrophoresis.

Another assay deals with T2, nucleolin/6183NT (Homo sapiens, UniProt P19338).
T2 construct: without the N-terminal acidic stretches domain
Described as above. Type of assay: binding. Further details: key to Activity of Compound A-1 (relative interference), ligand 6183NT: +: least interference by compound A-1; ++++: greatest interference by compound A-1. As for the experimental part:
as §1, §2

The target in a further assay is T3, nucleolin/6374NT (Homo sapiens, UniProt P19338).
T3 construct: without the N-terminal acidic stretches domain
The assay is described as above. Type of assay: binding. As to conditions: ligand 6374NT, read-out: IC50, concentration of Compound A-1 required to dissociate half of the complexed nucleic acid ligand and nucleolin protein. The protocol:
(§3) The following assays assessed effects of compounds on interactions between nucleolin and nucleic acid ligands capable of forming quadruplex (QP) and hairpin (HP) secondary structures. Nucleic acid ligands tested were a cMyc QP DNA having nucleotide sequence 5′-[…]-3′ (SEQ ID NO: 176) and a HP pre-rRNA region to which nucleolin binds, having the sequence 5′-[…]-3′ (SEQ ID NO: 177). In the assays, recombinant nucleolin (˜250 nM), which was fused to maltose binding protein and had the sequence under accession number NM_005381 without the N-terminal acidic stretches domain, was incubated with each of the two ^32P-labeled nucleic acid ligands (10 or 250 nM). Nucleolin and the nucleic acid ligand were incubated in the presence or absence of a test compound of Formula A-1, B-1, C-6 or C-7 in an incubation buffer (12.5 mM Tris, pH 7.6, 60 mM KCl, 1 mM MgCl2, 0.1 mM EDTA, 1 mM DTT, 5% glycerol, 0.1 mg/ml BSA) for 30 minutes at room temperature. Structures for A-1 and B-1 are shown above and structures for C-6 and C-7 are shown hereafter: [drawing 17] The resulting complexes were separated on a 6% DNA retardation gel using 0.5× TBE with 20 mM KCl as a running buffer (i.e., electrophoresis mobility shift assay (EMSA)).
(§4) The assay also was conducted using nucleic acid ligands derived from human ribosomal DNA. Sequences of these nucleic acids are shown in the preceding example. […] A “+” represents the weakest nucleolin affinity and least interference by compound A-1 and a “++++” represents the strongest nucleolin affinity and greatest interference by compound A-1.
(§5) The assay also was conducted in a filter-binding format. […] The protein-quadruplex mixtures were incubated for 30 min at ambient temperature and filtered through mixed cellulose ester membrane filters (Millipore) with gentle suction. The filters were washed twice with […] of binding buffer, dried and OptiPhase ‘SuperMix’ scintillation cocktail (Perkin Elmer) was added to the wells. Radioactivity was assayed with MicroBeta scintillation counter (Perkin Elmer). Binding curves were constructed and apparent Kd's and Bmax's for the complexes were calculated using the GraphPad Prizm software program (GraphPad Software). In the following table, the nucleic acid ligand is designated in the first column using the nomenclature described herein; the second column provides the nucleotide sequence of the nucleic acid ligand; the third column is the conformation of the ligand as determined by circular dichroism (M is mixed, P is parallel, A is antiparallel, C is complex, SS is single-stranded and ND is not determined); the fourth column is the dissociation constant determined by the filter binding assay of nucleolin protein and the nucleic acid ligand; the fifth column is a Bmax constant determined by the filter binding assay, which is the percent of active nucleic acid ligand in each assay; and the sixth column presents the concentration of Compound A-1 required to dissociate half of the complexed nucleic acid ligand and nucleolin protein, as determined by the EMSA assay described above.

The next assay addresses T4, nucleolin/7253NT (Homo sapiens, UniProt P19338).
T4 construct: without the N-terminal acidic stretches domain
The assay is described as above. Type of assay: binding. As to conditions: ligand 7253NT, read-out: IC50, concentration of Compound A-1 required to dissociate half of the complexed nucleic acid ligand and nucleolin protein. As for the experimental part: as §3, §4, §5

A further assay concerns the target T5, nucleolin/5701NT (Homo sapiens, UniProt P19338).
T5 construct: without the N-terminal acidic stretches domain
The assay is described as above. As to conditions: ligand 5701NT, read-out: IC50, concentration of Compound A-1 required to dissociate half of the complexed nucleic acid ligand and nucleolin protein. Type of assay: binding. As for the experimental part:
as §3, §4, §5

The target of the next assay is T6, nucleolin/8511NT (Homo sapiens, UniProt P19338).
T6 construct: without the N-terminal acidic stretches domain
The description is as above. Type of assay: binding. As to conditions: ligand 8511NT, read-out: IC50, concentration of Compound A-1 required to dissociate half of the complexed nucleic acid ligand and nucleolin protein. The protocol:
as §3, §4, §5

A further assay deals with T7, nucleolin/6534NT (Homo sapiens, UniProt P19338).
T7 construct: without the N-terminal acidic stretches domain
The assay is described as above. Type of assay: binding. The settings on record: ligand 6534NT, read-out: IC50, concentration of Compound A-1 required to dissociate half of the complexed nucleic acid ligand and nucleolin protein. The protocol: as §3, §4, §5

For assay [2], the system named is 28S rRNA and 18S rRNA (total RNA from HCT116 cells). The assay can be described thus: Human rRNA interaction screening assay (agarose gel electrophoresis mobility shift). Type of assay: binding. The settings on record: 1 ug total RNA; 10 uM compound or 0.5 ug/mL PI, 15 min, room temperature. As for the experimental part:
RNA was isolated from HCT116 cells (RNeasy kit, QIAGEN) and contacted in vitro with each compound from a library of compounds. In representative assays, 1 ug of total RNA from HCT116 cells was incubated with 0.5 ug/mL of propidium iodide (PI), 10 uM compound A-1 or another compound in the library in a volume of 10 uL for 15 min at room temperature, followed by agarose gel electrophoresis. Fluorescence of the compounds was visualized on each gel. […] Compounds C-1, C-2, C-3, C-4 and C-5 have the following general formula: [drawing 15] [drawing 16]

The test system of assay [3] is cellular DNA or RNA in A549 cells. The assay can be described thus: Cellular target study, RNase A or DNase I treatment of compound-treated cells. Type of assay: cell-based. As to conditions: 2 uM. The protocol: To determine the cellular target of rRNA-interacting compounds, a study was conducted to ascertain whether the compounds could select for cellular DNA or RNA. In these studies A549 cells were plated in borosilicate chamber slides. The cells were treated with 2 uM compound A-1 the next day for one hour or two hours, washed with PBS, fixed for 10 min in 4% paraformaldehyde, permeabilized for 5 min in 1:1 ethanol:acetone mix, treated with 2.5 ug/mL of RNase A or 340 Kunitz units/mL of DNase I and observed under a fluorescence microscope (Olympus) in the Ex360 nm/Em548 nm channel at 600× magnification. […] Accordingly, a compound tested in the assay interacted with RNA preferentially over DNA in cells.

The next assay concerns the target T8, nucleolin/1196NT (Homo sapiens, UniProt P19338).
T8 construct: without the N-terminal acidic stretches domain
The assay can be described thus: EMSA, interference with nucleolin/nucleic acid ligand interaction. Type of assay: binding. Further details: key to Activity of Compound A-1 (relative interference), ligand 1196NT: +: least interference by compound A-1; ++++: greatest interference by compound A-1. The protocol:
as §1, §2

Entries after “also recorded” stand apart in the source; their conditions may differ.

T1 sequence (P19338 284-710 limits assumed): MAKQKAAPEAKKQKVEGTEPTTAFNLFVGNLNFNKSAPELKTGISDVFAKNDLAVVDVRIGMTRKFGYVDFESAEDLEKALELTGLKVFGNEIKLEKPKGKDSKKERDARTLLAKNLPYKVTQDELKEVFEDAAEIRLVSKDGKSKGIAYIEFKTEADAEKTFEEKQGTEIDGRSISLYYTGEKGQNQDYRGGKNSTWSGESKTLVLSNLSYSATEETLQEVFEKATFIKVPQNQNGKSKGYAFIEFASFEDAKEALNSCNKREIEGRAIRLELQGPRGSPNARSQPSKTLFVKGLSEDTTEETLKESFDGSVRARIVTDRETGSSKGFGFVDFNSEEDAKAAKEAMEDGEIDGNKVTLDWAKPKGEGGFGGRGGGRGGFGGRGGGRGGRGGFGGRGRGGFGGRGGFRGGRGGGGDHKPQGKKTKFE
T2 sequence (P19338 284-710 limits assumed): as above
T8 sequence (P19338 284-710 limits assumed): as above
T6 sequence (P19338 284-710 limits assumed): as above
T4 sequence (P19338 284-710 limits assumed): as above
T5 sequence (P19338 284-710 limits assumed): as above
T7 sequence (P19338 284-710 limits assumed): as above
T3 sequence (P19338 284-710 limits assumed): as above

Regarding `CN1CCCC1CCNC(=O)c1cn2c3c(c(N4CCC(c5cnccn5)C4)c(F)cc3c1=O)Oc1cc3ccccc3cc1-2` (stereo not drawn) [Compound A-1], the “preferred quadruplex structure in competition assays” value in assay [1] was “interact preferentially with a mixed-parallel quadruplex structure”. The “Activity of Compound A-1 (relative interference), ligand 8749NT” value at nucleolin/8749NT is given as “+”. In addition, the IC50 on nucleolin/8749NT (ligand 8749NT, read-out: IC50, concentration of Compound A-1 required to dissociate half of the complexed nucleic acid ligand and nucleolin protein) is 10 µM; on nucleolin/6183NT (ligand 6183NT, read-out: IC50, concentration of Compound A-1 required to dissociate half of the complexed nucleic acid ligand and nucleolin protein), 3 µM; on nucleolin/6374NT it was 3 µM; at nucleolin/7253NT, 10 µM; at nucleolin/5701NT, 3 µM; at nucleolin/8511NT, 10 µM. Further, the IC50 came out at 10 µM at nucleolin/6534NT; 3 µM on nucleolin/1196NT (ligand 1196NT, read-out: IC50, concentration of Compound A-1 required to dissociate half of the complexed nucleic acid ligand and nucleolin protein). Further, the “Activity of Compound A-1 (relative interference), ligand 6183NT” value at nucleolin/6183NT is “+”. Moreover, in assay [2], the “binding to 28S versus 18S rRNA” value is “bound preferentially to 28S rRNA; also recorded: selective binding to 28S over 18S”. For the same compound, the “effect of RNase treatment on nucleolar staining by the drug” value in [3] (2.5 ug/mL RNase A) is on record as “significantly reduced nucleolar staining”. The “effect of DNase I treatment on compound localization” value in [3] (340 Kunitz units/mL DNase I) is “minimal effect”. The “Activity of Compound A-1 (relative interference), ligand 1196NT” value at nucleolin/1196NT was “+”.

The values above are taken from US20070117770A1, “Human ribosomal DNA (rDNA) and ribosomal RNA (rRNA) nucleic acids and uses thereof” (Cylene Pharmaceuticals, Inc., priority 2005, published 2007).
